The subject of one test is K562. The experiment in a line: Cytotoxicity against human K562 cells after 72 hrs by CCK8 assay. The format is functional, cell-based. The note with it: K562, 72 h. On the technique in general: Formazan colour is commonly taken as a measure of viable cells.
Test [1] relates to Mycobacterium tuberculosis. In words: Antitubercular activity against Mycobacterium tuberculosis H37Ra incubated for 7 days by Alamar blue dye-based fluorometric assay. The class given is functional, organism-based. The conditions noted are these: 168 h. (In general: Alamar Blue is a resazurin reagent that responds to reducing activity.)
For another test, the system named is A549. The experiment in a line: Cytotoxicity against human A549 cells after 72 hrs by CCK8 assay. The format is functional, cell-based. The note with it: A549, 72 h.
The test system of another test is Huh-7. In words: Cytotoxicity against human HuH7 cells after 72 hrs by CCK8 assay. The class given is functional, cell-based. The conditions noted are these: Huh-7, 72 h.

A value given as a limit tells only on which side of the number the result lay.

What is called IC50 is the concentration that gives 50% inhibition.

On to `C/C=C(\C)C(=O)O[C@@H]1[C@@H](C)[C@]2(O)[C@@H]3C=C(C)C(=O)[C@@H]3CC(CO)=C[C@H]2[C@@H]2C(C)(C)[C@]12OC(C)=O`, for which the IC50 came to 0.07 µM in the test on K562, 20.5 µM in test [1], 8.5 µM in the test on A549 and 3.36 µM with Huh-7.
The corresponding values for `CCC(C)C(=O)O[C@@]12[C@H](O)[C@@H](C)[C@@]3(O)[C@H]([C@@H]1C2(C)C)[C@@H](O)C(CO)=C[C@]1(O)C(=O)C(C)=C[C@@H]31` (some centres not stated) are 0.07 µM, more than 30 µM, 8.86 µM and 11.6 µM.
Take `CCC(C)C(=O)O[C@@]12[C@H](O)[C@@H](C)[C@@]3(O)[C@@H](C=C(CO)C[C@]4(O)C(=O)C(C)=C[C@@H]34)[C@@H]1C2(C)C` (some centres not stated): the half-maximal inhibitory concentration (IC50) was 0.05 µM in the test with K562, more than 30 µM in test [1], 43.5 µM in the test with A549 and 34.2 µM with Huh-7.
`C/C=C(\C)C(=O)O[C@@H]1[C@@H](C)[C@]2(O)[C@@H]3C=C(C)C(=O)[C@@H]3CC(C=O)=C[C@H]2[C@@H]2C(C)(C)[C@]12OC(C)=O`: the IC50 amounted to 0.03 µM with K562, 19.5 µM in test [1], 6.88 µM in the test on A549 and 3.85 µM in the test with Huh-7.
With `C/C=C(\C)C(=O)O[C@@H]1[C@@H](C)[C@@]2(O)[C@@H](C(=O)C(CO)=C[C@]3(O)C(=O)C(C)=C[C@@H]23)[C@@H]2C(C)(C)[C@]12OC(=O)C(C)C`, the IC50 with K562 was found to be 0.05 µM; in test [1], 13.4 µM; in the test with A549, 3.11 µM; with Huh-7, 4.41 µM.
The corresponding values for `CCC(C)C(=O)O[C@@]12[C@H](O)[C@@H](C)[C@@]3(O)[C@@H](C(=O)C(CO)=C[C@]4(O)C(=O)C(C)=C[C@@H]34)[C@@H]1C2(C)C` (some centres not stated) are 0.03 µM, 20.9 µM, 6.33 µM and 20.9 µM.
Molecule `NNC(=O)c1ccncc1` [ISONIAZID] yielded an IC50 in test [1] of 2.04 µM.
Consider `CC(=O)O[C@H]1C(=O)[C@@]2(C)[C@H]([C@H](OC(=O)c3ccccc3)[C@]3(O)C[C@H](OC(=O)[C@H](O)[C@@H](NC(=O)c4ccccc4)c4ccccc4)C(C)=C1C3(C)C)[C@]1(OC(C)=O)CO[C@@H]1C[C@@H]2O` [PACLITAXEL], for which the results for the IC50 with K562, in the test on A549 and with Huh-7 were 3.21 µM, 1.92 µM and 6.75 µM, respectively.
As to `CC1=C[C@H]2[C@@]3(O)[C@H](C)[C@@H](O)[C@]4(O)[C@H]([C@@H]3C=C(CO)C[C@]2(O)C1=O)C4(C)C` [PHORBOL], the IC50 in the test on K562 is 0.1 µM; in test [1] it was more than 30 µM; with A549, 15.3 µM; with Huh-7, 5.93 µM.

The record behind these values is ChEMBL document CHEMBL4428113, “Antitubercular and cytotoxic tigliane-type diterpenoids from Croton tiglium” (Bioorg Med Chem Lett, 2016).
